Our source for the IC50 values is US11001561B2, “Pyrimidinone derivatives as SHP2 antagonists” (MERCK PATENT GMBH, priority 2019, dated 2021).

Counter-ions that a name gives are not always drawn.

In one test the target is Full length SHP2 protein (Recombinant Human SHP-2) (Homo sapiens (Human), UniProt Q06124). In words: SHP2 biochemical assay (DiFMUP substrate, activating peptide IRSI_2pY). Particulars: SHP-2 biochemical assay IC50 (μM), activating peptide IRSI_2pY 140 nM, DiFMUP, 60 min.
Full length SHP2 protein (Recombinant Human SHP-2), sequence (Q06124 2-593): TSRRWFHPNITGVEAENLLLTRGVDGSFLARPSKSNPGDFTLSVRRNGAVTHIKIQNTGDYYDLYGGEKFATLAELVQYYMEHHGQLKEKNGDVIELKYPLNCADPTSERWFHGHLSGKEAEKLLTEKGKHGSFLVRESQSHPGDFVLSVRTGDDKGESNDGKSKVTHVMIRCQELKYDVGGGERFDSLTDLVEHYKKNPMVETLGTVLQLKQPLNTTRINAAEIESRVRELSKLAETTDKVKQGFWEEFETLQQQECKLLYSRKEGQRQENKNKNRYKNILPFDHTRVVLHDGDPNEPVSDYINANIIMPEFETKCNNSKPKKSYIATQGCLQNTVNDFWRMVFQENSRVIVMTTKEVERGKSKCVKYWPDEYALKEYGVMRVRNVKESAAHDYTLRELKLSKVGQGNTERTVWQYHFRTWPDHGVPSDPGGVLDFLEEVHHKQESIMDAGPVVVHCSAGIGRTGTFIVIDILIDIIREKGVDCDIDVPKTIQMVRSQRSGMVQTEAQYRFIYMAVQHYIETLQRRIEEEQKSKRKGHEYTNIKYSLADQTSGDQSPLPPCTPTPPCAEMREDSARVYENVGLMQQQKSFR
Method: The inhibition of SHP2 by compounds of the invention was monitored using the surrogate substrate DiFMUP after protein activation by a peptide bearing two appropriately spaced phosphotyrosine. […] The generation of the DiFMU product by activated SHP2 was monitored through Fluorescence measurement with a PerkinElmer Envision reader. The inhibitor dose response curves were analyzed with Genedata Screener.
By IC50 is commonly meant the midpoint of a concentration-inhibition curve. `COc1c(N2CCC3(CC2)CO[C@@H](C)[C@H]3N)nc(C)n(-c2cccc(Cl)c2Cl)c1=O` (single isomer, unassigned) [Compound 73b]: the IC50 is 0.91 µM.

For `[2H]C([2H])([2H])c1c(N2CCC3(CC2)CO[C@@H](C)[C@H]3N)nc(C)n(-c2cccc(Cl)c2Cl)c1=O` (single isomer, unassigned) [Compound 63a], the IC50 was 6 µM.

As to `Cc1nc(N2CCC(C)([C@H](O)CN)CC2)cc(=O)n1-c1cccc(Cl)c1Cl` (racemic) [Compound 57a, (+/−)-(3M)-6-{4-[(1S)-2-amino-1-hydroxyethyl]-4-methylpiperidin-1-yl}-3-(2,3-dichlorophenyl)-2-methyl-3,4-dihydropyrimidin-4-one], the IC50 is above 10 µM.

Consider `Cc1nc(N2CCC(C)(N3CC[C@H](O)C3)CC2)cc(=O)n1-c1cccc(Cl)c1Cl` (racemic) [Compound 72b, (+/−)-(3M)-3-(2,3-dichlorophenyl)-6-{4-[(3R)-3-hydroxy-pyrrolidin-1-yl]-4-methylpiperidin-1-yl}-2-methyl-3,4-dihydropyrimidin-4-one], for which the IC50 was 6.4 µM.

Regarding `Cc1nc(N2CCC[C@](N)(CC(F)F)CC2)cc(=O)n1-c1cccc(Cl)c1Cl` (racemic) [Compound 58a, (+/−)-(3M)-6-4-[(1R)-4-amino-4-(2,2-difluoroethyl)-azepan-1-yl]-3-(2,3-dichlorophenyl)-2-methyl-3,4-dihydropyrimidin-4-one], the IC50 was above 10 µM.

As to `Cc1nc(C2=CC[C@@](C)(N)CC2)cc(=O)n1-c1cccc(Cl)c1Cl` (racemic) [Compound 6a, (+/−)-(3M)-6-[(4S)-4-amino-4-methylcyclohex-1-en-1-yl]-3-(2,3-dichlorophenyl)-2-methyl-3,4-dihydropyrimidin-4-one], the IC50 stood at 19 µM.

`Cc1nc(C2=CC[C@@](C)(N)CC2)cc(=O)n1-c1cccc(Cl)c1Cl` (racemic) [Compound 6b, (+/−)-(3P)-6-[(4S)-4-amino-4-methylcyclohex-1-en-1-yl]-3-(2,3-dichlorophenyl)-2-methyl-3,4-dihydropyrimidin-4-one]: the IC50 was above 10 µM.

As for `Cc1c(N2CCC3(CC2)Oc2ncccc2[C@H]3N)nc(C)n(-c2cccc(Cl)c2Cl)c1=O` [Compound 79a, (3M)-6-[(3R)-3-amino-3H-spiro[furo[2,3-b]pyridine-2,4′-piperidin]-1′-yl]-3-(2,3-dichlorophenyl)-2,5-dimethylpyrimidin-4-one], the IC50 came to 0.3 µM.

The same test, now with this note: activating peptide IRSI_2pY 140 nM, DiFMUP, 60 min; read-out: SHP-2 biochemical assay IC50.
Consider `CNC1(C)CCN(c2cc(=O)n(-c3cccc(Cl)c3Cl)c(C)n2)CC1` [Compound 31, 3-(2,3-dichlorophenyl)-2-methyl-6-[4-methyl-4-(methylamino)piperidin-1-yl]-3,4-dihydropyrimidin-4-one], for which the IC50 is 0.56 µM.

On to `Cc1nc(N2CCC(C)(CN)CC2)cc(=O)n1-c1cccc(Cl)c1Cl` [Compound 4, 6-[4-(aminomethyl)-4-methylpiperidin-1-yl]-3-(2,3-dichlorophenyl)-2-methyl-3,4-dihydropyrimidin-4-one], for which the IC50 worked out at 0.26 µM.

As for `Cc1c(N2CCC(CN)(CO)CC2)nc(C)n(-c2cccc(Cl)c2Cl)c1=O` [Compound 88, 6-[4-(aminomethyl)-4-(hydroxymethyl)piperidin-1-yl]-3-(2,3-dichlorophenyl)-2,5-dimethyl-3,4-dihydropyrimidin-4-one], the IC50 is 0.59 µM.

`Nc1nc(N2CCC3(CC2)CC(F)(F)C[C@H]3N)cc(=O)n1-c1cccc(Cl)c1Cl` [Compound 8, 2-amino-6-[(1R)-1-amino-3,3-difluoro-8-azaspiro[4.5]decan-8-yl]-3-(2,3-dichlorophenyl)-3,4-dihydropyrimidin-4-one]: the IC50 is 1.1 µM.

`Cc1nc(N2CCC(C)(N)CC2)c(Cl)c(=O)n1-c1cccc(Cl)c1Cl` [Compound 10, 6-(4-amino-4-methylpiperidin-1-yl)-5-chloro-3-(2,3-dichlorophenyl)-2-methyl-3,4-dihydropyrimidin-4-one]: the IC50 came to 1.1 µM.

In the case of `Cc1c(N2CC(CN)C(C)(C)C2)nc(C)n(-c2cccc(Cl)c2Cl)c1=O` (stereo not drawn) [Compound 87, 6-[4-(aminomethyl)-3,3-dimethylpyrrolidin-1-yl]-3-(2,3-dichlorophenyl)-2,5-dimeihyl-3,4-dihydropyrimidin-4-one], the half-inhibitory concentration (IC50) turned out to be 7.9 µM.

For `CCc1c(N2CCC3(CC2)CO[C@@H](C)[C@H]3N)nc(C)n(-c2cccc(Cl)c2Cl)c1=O` [Compound 36, 6-[(3S,4S)-4-amino-3-methyl-2-oxa-8-azaspiro[4.5]decan-8-yl]-3-(2,3-dichlorophenyl)-5-ethyl-2-methyl-3,4-dihydropyrimidin-4-one], the IC50 is 5 µM.

On to `Cc1nc(N2CCC(NC[C@@H](O)CO)CC2)cc(=O)n1-c1cccc(Cl)c1Cl` [Compound 41, 3-(2,3-dichlorophenyl)-6-(4-{[(2R)-2,3-dihydroxypropyl]-amino}piperidin-1-yl)-2-methyl-3,4-dihydropyrimidin-4-one], for which the IC50 is 2.5 µM.

`Cc1c(N2CCN3CC(N)CC3C2)nc(C)n(-c2cccc(Cl)c2Cl)c1=O` (stereo not drawn) [Compound 100, (3M)-6-7-amino-octahydropyrrolo[1,2-a]pyrazin-2-yl-3-(2,3-dichlorophenyl)-2,5-dimethyl-3,4-dihydropyrimidin-4-one]: the half-maximal inhibitory concentration (IC50) was 5.8 µM.

Turning to `Cc1nc(N2CCC(N)(C(N)=O)CC2)cc(=O)n1-c1cccc(Cl)c1Cl` [Compound 22, 4-amino-1-[1-(2,3-dichlorophenyl)-2-methyl-6-oxo-1,6-dihydropyrimidin-4-yl]piperidine-4-carboxamide], the concentration for half-maximal inhibition (IC50) amounted to 2.1 µM.

Regarding `Cc1c(N2CCCC(N)(CC(C)O)CC2)nc(C)n(-c2cccc(Cl)c2Cl)c1=O` (stereo not drawn) [Compound 115, (3M)-6-[4-amino-4-(2-hydroxypropyl)azepan-1-yl]-3-(2,3-dichlorophenyl)-2,5-dimethyl-3,4-dihydropyrimidin-4-one], the IC50 worked out at 3.8 µM.

Consider `Cc1nc(N2CCC3(CC2)CO[C@@H](C)[C@H]3N)cc(=O)n1-c1ccccc1` [Compound 7, 6-[(3S,4S)-4-amino-3-methyl-2-oxa-8-azaspiro[4.5]decan-8-yl]-2-methyl-3-phenyl-3,4-dihydropyrimidin-4-one], for which the IC50 stood at 4.8 µM.

On to `CSc1nc(N2CCC(C)(N)CC2)cc(=O)n1-c1cccc(Cl)c1Cl` [Compound 1, 6-(4-amino-4-methylpiperidin-1-yl)-3-(2,3-dichlorophenyl)-2-(methylsulfanyl)-3,4-dihydropyrimidin-4-one], for which the IC50 came out at 8.6 µM.

Turning to `Cc1c(N2CCC(C)(CN)CC2)nc(C)n(-c2ccc3ccccc3c2Cl)c1=O` [Compound 54, 6-(4-Aminomethyl-4-methyl-piperidin-1-yl)-3-(1-chloro-naphthalen-2-yl)-2,5-dimethyl-3H-pyrimidin-4-one], the IC50 was determined as 5.6 µM.

For the molecule `CC1(CN)CCN(c2cc(=O)n(-c3cccc(Cl)c3Cl)c(C(F)F)n2)CC1` [Compound 17, 6-[4-(aminomethyl)-4-methylpiperidin-1-yl]-3-(2,3-dichlorophenyl)-2-(difluoromethyl)-3,4-dihydropyrimidin-4-one], the IC50 amounted to 3 µM.

As for `Cc1nc(N2CCC(CO)(CCN)CC2)cc(=O)n1-c1cccc(Cl)c1Cl` [Compound 16, 6-[4-(2-aminoethyl)-4-(hydroxymethyl)piperidin--yl]-3-(2,3-dichlorophenyl)-2-methyl-3,4-dihydropyrimidin-4-one], the IC50 was determined as 4.3 µM.

`Cc1c(N2CCC3(CC2)CC3CN)nc(C)n(-c2cccc(Cl)c2Cl)c1=O` (stereo not drawn) [Compound 86, 6-[1-(aminomethyl)-6-azaspiro[2.5]octan-6-yl]-3-(2,3-dichlorophenyl)-2,5-dimethyl-3,4-dihydropyrimidin-4-one]: the IC50 was found to be 4.6 µM.

For `Cc1c(N2CCC3(CC2)Oc2cnccc2C3N)nc(C)n(-c2cccc(Cl)c2Cl)c1=O` (single isomer, unassigned) [Compound 80c], the IC50 was determined as 0.005 µM.

As to `Cc1nc(N2C[C@H]3CC(O)C[C@@]3(CN)C2)cc(=O)n1-c1cccc(Cl)c1Cl` (stereo partly drawn) [Compound 59, 6-[(3aR,6aS)-3a-(aminomethyl)-5-hydroxy-octahydrocyclopenta[c]pyrrol-2-yl]-3-(2,3-dichlorophenyl)-2-methyl-3,4-dihydropyrimidin-4-one], the IC50 stood at 2.6 µM.

Turning to `Cc1c(N2CCC3(CC2)CO[C@@H](C)[C@H]3N)nc(C)n(-c2cccc(Cl)c2Cl)c1=O` (single isomer, unassigned) [Compound 23a], the IC50 amounted to 3.4 µM.

In the case of `COCC(O)CNC1CCN(c2cc(=O)n(-c3cccc(Cl)c3Cl)c(C)n2)CC1` (stereo not drawn) [Compound 46, 3-(2,3-dichlorophenyl)-6-{4-[(2-hydroxy-3-methoxypropyl)-amino]piperidin-1-yl}-2-methyl-3,4-dihydropyrimidin-4-one], the IC50 is above 10 µM.

As for `Cc1c(N2CCc3cccc(N)c3C2)nc(C)n(-c2cccc(Cl)c2Cl)c1=O` [Compound 51, 6-(8-amino-1,2,3,4-tetrahydroisoquinolin-2-yl)-3-(2,3-dichlorophenyl)-2,5-dimethyl-3,4-dihydropyrimidin-4-one], the concentration for half-maximal inhibition (IC50) was above 10 µM.

For the molecule `Cc1c(N2CCC(C)(N)CC2)ncn(-c2cccc(Cl)c2Cl)c1=O` [Compound 70, 6-(4-Amino-4-methyl-piperidin-1-yl)-3-(2,3-dichloro-phenyl)-5-methyl-3H-pyrimidin-4-one], the IC50 was above 10 µM.

For the molecule `Cc1nc(N2CCC3(CC2)CO[C@@H](C)[C@H]3N)c(C(C)C)c(=O)n1-c1cccc(Cl)c1Cl` (atropisomer, axis not shown) [Compound 49a, (3P)-6-[(3S,4S)-4-amino-3-methyl-2-oxa-8-azaspiro[4.5]decan-8-yl]-3-(2,3-dichlorophenyl)-2-methyl-5-(propan-2-yl)-3,4-dihydropyrimidin-4-one], the IC50 was above 10 µM.

For `Cc1nc(N2CCCC(C)(N)CC2)cc(=O)n1-c1cccc(Cl)c1Cl` (stereo not drawn) [Compound 21, 6-(4-amino-4-methylazepan-1-yl)-3-(2,3-dichlorophenyl)-2-methyl-3,4-dihydropyrimidin-4-one hydrochloride], the IC50 is 1.6 µM.
